Reference: patent publication US20230075368A1, “IDENTIFICATION OF AN EGFR-BIN3 PATHWAY THAT ACTIVELY SUPPRESSES INVASION AND REDUCES TUMOR SIZE IN GLIOBLASTOMA” (The United States Govemment as represented by the …, priority 2020, published 2023)

Experiments:
STAT1 = test: Western blot of pSTAT1 and STAT1; assay type: cell-based, human; details: tofacitinib 1 μM, 24 hours; GBM12 and GBM6
Method: Mayo PDX cells were serum starved overnight. Following treatment for specific time, cells were harvested and lysed. The human glioblastoma tissues were ground in liquid nitrogen and then were lysed. […] TGFα antibody was from R&D system.
. . . […] A similar experiment was performed in GBM6 (FIG. 18F). […] The Western blot images are representative of three independent biological replicates. Actin served as loading control. Data are represented as mean±SEM from three independent experiments. *P<0.05, **P<0.01, ***P<0.001, unpaired two-tailed t-test.

EMP1 = test: Western blot of EMP1; assay type: cell-based, human; details: EGF 50 ng/ml, 24 hours; GBM12 and GBM6
Method: Whole protein extracts from cells or tumor tissues were analyzed by western blot as previously described (Altieri et al. (2015) Surg. Technol. Int 27: 297-302). Mayo PDX cells were serum starved overnight. Following treatment for specific time, cells were harvested and lysed. The human glioblastoma tissues were ground in liquid nitrogen and then were lysed. EGFR (06-847) antibody was from Millipore. DOCK7 was from Proteintech (Rosemont, Ill.). pEGFR (2236), STAT3 (12640), pSTAT3 (9145), cdc42(4376), and RhoA (4695) antibodies were from Cell Signaling Technology (Danvers, Mass.). TGFα antibody was from R&D system. BIN3 (sc-514396) and (3-Actin (sc-47778) were from Santa Cruz Biotechnology (Dallas, Tex.).
Referring to FIG. 23A-P, EGFR induced EMP1 overexpression drives invasion and is mediated by Nanog. Specifically, cells were transiently transfected with empty or EGFRwt or EGFRvIII vector for 48 hours, and subjected to Western blot analysis for EGFR, pEGFR, BIN3 and EMP1 (FIG. 23A). Similar experiments were performed in GBM14 (FIG. 23B). […] Similar experiments were performed in GBM14 (FIG. 23E). Efficiency of EMP1 knockdown and EGFR overexpression was confirmed by Western blot analysis (FIG. 23F and FIG. 23G). […] FIG. 23J and FIG. 23K show EMP1 mRNA levels in EGFR and EGFRvIII overexpressing GBM12 and GBM14, measured by RT-PCR. […]

[1] = system: GBM12 mouse intracranial tumors; test: Exogenous EGF infusion into GBM12 intracranial tumors; assay type: in vivo, mice; details: EGF infused into lateral ventricles by miniosmotic pump
Method: 4 to 6 weeks old female athymic nude mice were purchased from Charles River Laboratories. Mayo PDXs were injected into the right corpus striatum of the brains of 6-8 week-old nude mice using a stereotactic frame. […] Kaplan-Maier survival curves were calculated using GraphPad Prism 7.0 software. Alzet Osmotic pumps were installed for brain delivery of EGF or vehicle in tumor bearing mice. To monitor the mice with orthotropic xenografts, MRI was performed at the Mouse MRI Core, Advanced Imaging Research Center, at UT Southwestern.
Next, the impact of EGFR ligand on GBM invasion was examined in an orthotopic mouse model. To induce ligand activation of EGFR in vivo, ligand to EGFR-expressing tumors were provided by generating an autocrine loop or by exogenous infusion of ligand. In the autocrine loop experiment, ligand for EGFRwt is provided by the same cells that express the EGFR. Autocrine loops involving EGFR and its ligands are well described in GBM (Ramnarain et al. (2006) Cancer Res. 66: 867-874; Tang et al. (1997) J. Neurooncol. 35: 303-314). […]
Western blot analysis of TGFα, pEGFR, EGFR, and BIN3 in PDXs stably transfected with empty (GBM12V, GBM6V, GBM22V) or TGFα expressing vector (GBM12TGFα, GBM6TGFα, GBM22TGFα) is shown in FIG. 12A. […] Quantitative analysis of HNA positive cells in mouse tumor tissue sections. […]

Row | Compound | phosphorylation of STAT1 (STAT1) | EMP1 level (EMP1) | tumor size (MRI) [1] | tumor invasiveness ([1]; H&E, SMI-31, HNA staining)
1 | C[C@@H]1CCN(C(=O)CC#N)C[C@@H]1N(C)c1ncnc2[nH]ccc12 [tofacitinib] | blocks phosphorylation | – | – | –
2 | EGF: Recombinant human EGF (AF-100) from Peprotech; EGFR ligand | – | does not affect EMP1 level | smaller tumors | noninvasive
